The values that follow come from paper PMC7504435, “Combined Protein- and Ligand-Observed NMR Workflow to Screen Fragment Cocktails against Multiple Proteins: A Case Study Using Bromodomains” (Molecules, 2020).

Test [1] concerns the target T1, PfGCN5 bromodomain (Plasmodium falciparum, UniProt Q8IB67). Description: 1H CPMG NMR deconvolution of hit mixtures, PfGCN5. The format is binding. To be noted: 10 µM protein, 100 µM ligand. The method, then:
The second step is a ^1H CPMG NMR deconvolution of the hit mixtures using the non-fluorine-labeled bromodomains. ^1H CPMG NMR employs a T2 filter to take advantage of the difference in transverse relaxation time between protein and small molecules to filter out the bound-state ligand(s). Unlike the PrOF NMR assay, a single protein is assayed in each experiment. A binding event is characterized by a decrease in ligand resonance intensity from the ligand alone spectrum to the ligand + protein spectrum. A hit is defined as a decrease in resonance intensity ≥ 20%. The ^1H CPMG NMR assay can be tuned by changing the protein or ligand concentration, filter length (Figure 1), or hit criteria depending on how stringent the desired hit rate is. The number of ^1H CPMG NMR deconvolution experiments is directly informed from the first step. If a mixture from the first step was only a hit for one protein, a single ^1H CPMG NMR deconvolution experiment is needed. If a mixture from the first step was a hit for both proteins, two separate ^1H CPMG NMR deconvolutions experiments are needed to determine the fragments that bind to each protein.
^1H CPMG NMR. ^1H CPMG NMR screen data were acquired on Bruker Avance III HD 500 with the 5 mm Prodigy TCI cryoprobe inverse cryoprobe (^1H 2500:1 S/N). Competition ^1H CPMG NMR data were acquired on Bruker 700 MHz Avance with a CryoProbe 5 mm TXI (^1H S:N with H2O suppression (2mM sucrose) - 900:1) and excitation sculpting water suppression. Proteins were present at 10 µM in 50 mM phosphate, 100 mM NaCl, pH 7.4 in 100% D2O. In separate NMR tubes, a ^1H CPMG NMR pulse was applied to a 1) mixture of ligands (individual ligands present at 100 µM for the screen and 50 µM for competition experiments) and 2) ligands + protein. […] For the competition experiments, τ was increased to 4.0 ms.

For test [2], the target named is T1, PfGCN5 bromodomain. Description: 1H-15N HSQC NMR titration with PfGCN5. It counts as binding. From the text:
To cross-validate our findings, ^1H-^15N HSQC NMR was used to further examine the binding mode of 9 to PfGCN5 in the presence and absence of known ligands. The ^1H-^15N HSQC spectrum of PfGCN5 is unassigned. For ease of spectral interpretation, all resonances that were distinctly visible were assigned as 1-64. Fragment 9, GSK4027, and the acetylated peptide H2A.Z II K7,13ac were titrated against PfGCN5. At the highest ligand concentration, resonances with Δδ > x^− + 0.60*s, where x^− is the mean and s is the standard deviation at the highest concentration, were defined as significant. The correction factor of 0.60 is to compensate for only 60% of the resonances being usable for analysis. Titration of 9 with PfGCN5 gave linear and non-linear dose-dependent chemical shift perturbations. Of the five resonances with non-linear movement, only one (10) was considered to have significant movement. […] This affinity with the non-fluorine-labeled protein is similar but higher than the affinity determined by PrOF NMR. […]
^1H-^15N SOFAST HSQC.^1H-^15N SOFAST HSQC spectra were obtained on a Bruker 600 MHz Avance NEO with a CryoProbe 5 mm TCI (^1H, ^13C, ^15N, ^2H) w/ Z-gradient using Bruker’s IBS_SOFAST.x method with 32 scans, 0.05 s acquisition time, and 0.2 s delay. […] Data were processed with nmrDraw, nmrPipe, and NFRAM Sparky. Δδ^1H-^15N was calculated using Equation (3). […]

In a further test the target is BPTF bromodomain (Homo sapiens, UniProt Q12830). Set-up: against the bromodomains of BPTF and Plasmodium falciparum GCN5 (PfGCN5); his6; made in house. To be noted: cited from earlier work.

T1 sequence (Q8IB67 entry or part of it): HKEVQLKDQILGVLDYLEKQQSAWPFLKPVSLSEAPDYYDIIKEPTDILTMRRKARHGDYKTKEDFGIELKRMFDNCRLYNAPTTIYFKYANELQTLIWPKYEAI

On to `Nc1ccc2c(c1)N(C(=O)C1CC1)CCC2` [Fragment 9], for which the “PfGCN5 CPMG % decrease” value at PfGCN5 bromodomain [1] worked out at 100%. In addition, the “1H CPMG NMR % Drop in Resonance Intensity PfGCN5” value on PfGCN5 bromodomain [1] (for 9 from competition experiments (footnote a)) is “++++ ^a (++++ = 80–99.9%)”. Moreover, the figures for the Kd on PfGCN5 bromodomain [2] and at BPTF bromodomain (via PrOF NMR) were 7.5 µM and 180 µM, respectively. The “single-point PrOF NMR Δδ with BPTF” value on BPTF bromodomain (400 µM 9, previous screen) was 0.453 ppm.

Usually Kd stands for the constant that tells how readily two partners part at equilibrium.
